In ChEMBL document CHEMBL3608308, “Design, synthesis and antiproliferative activity of novel heterobivalent hybrids based on imidazo[2,1-b][1,3,4]thiadiazole and imidazo[2,1-b][1,3]thiazole scaffolds” (Eur J Med Chem, 2015):

Assays:
Format in all cases: functional
[1] = test system: L1210; experiment: Antiproliferative activity against mouse L1210 cells assessed as inhibition of cell proliferation incubated for 2 days by Coulter counter based assay; settings: L1210, 48 h
[2] = test system: FM3A; experiment: Antiproliferative activity against mouse FM3A cells assessed as inhibition of cell proliferation incubated for 2 days by Coulter counter based assay; settings: 48 h
[3] = test system: HeLa; experiment: Antiproliferative activity against human HeLa cells assessed as inhibition of cell proliferation incubated for 4 days by Coulter counter based assay; settings: 96 h
[4] = test system: CCRF-CEM; experiment: Antiproliferative activity against human CEM cells assessed as inhibition of cell proliferation incubated for 3 days by Coulter counter based assay; settings: 72 h

SMILES | IC50 [1] | IC50 [2] | IC50 [3] | IC50 [4]
C=C(Br)C(=O)Nc1cccc(-c2cn3nc(Cc4cccc(OC)c4)sc3n2)c1 | 2 µM | 1.1 µM | 2.5 µM | 3.1 µM
COc1cccc(Cc2nn3cc(-c4cccc(N)c4)nc3s2)c1 | 21 µM | 10 µM | 24 µM | 40 µM
C=C(Br)C(=O)Nc1cccc(-c2cn3nc(Cc4ccccc4)sc3n2)c1 | 3 µM | 3 µM | 4.5 µM | 4.2 µM
C=C(Br)C(=O)Nc1cccc(-c2cn3nc(-c4cccc(OC)c4)sc3n2)c1 | 0.58 µM | 0.5 µM | 1.1 µM | 1.2 µM
Nc1cccc(-c2cn3nc(Cc4ccccc4)sc3n2)c1 | 7.4 µM | 4.7 µM | 24 µM | 37 µM
COc1ccc(Cc2nn3cc(-c4cccc(N)c4)nc3s2)cc1 | 227 µM | 100 µM | 191 µM | ≥ 250 µM
COc1ccc(-c2csc3nc(-c4cccc(N)c4)cn23)cc1 | 19 µM | 11 µM | 19 µM | 6.1 µM
COc1ccc(-c2nn3cc(-c4cccc(N)c4)nc3s2)cc1OC | 16 µM | 13 µM | 26 µM | 14 µM
COc1cccc(-c2nn3cc(-c4cccc(N)c4)nc3s2)c1 | > 250 µM | 29 µM | 230 µM | > 250 µM
CCc1ccc(-c2nn3cc(-c4cccc(N)c4)nc3s2)cc1 | 6 µM | 8.2 µM | 8.1 µM | 22 µM
Nc1cccc(-c2cn3nc(-c4ccc(F)cc4)sc3n2)c1 | ≥ 250 µM | 33 µM | ≥ 250 µM | ≥ 250 µM
Nc1cccc(-c2cn3nc(Cc4ccc(Cl)cc4)sc3n2)c1 | 16 µM | 6 µM | 25 µM | 42 µM
C=C(Br)C(=O)Nc1cccc(-c2cn3nc(-c4ccc(CC)cc4)sc3n2)c1 | 2.2 µM | 3.3 µM | 3.2 µM | 3.4 µM
Nc1cccc(-c2cn3nc(-c4cccs4)sc3n2)c1 | > 250 µM | > 250 µM | > 250 µM | > 250 µM
C=C(Br)C(=O)Nc1cccc(-c2cn3c(-c4ccc(Cl)cc4)csc3n2)c1 | 1.9 µM | 1.1 µM | 3 µM | 2.2 µM
Nc1cccc(-c2cn3nc(-c4ccccc4)sc3n2)c1 | 32 µM | 14 µM | 26 µM | 33 µM
C=C(Br)C(=O)Nc1cccc(-c2cn3nc(-c4ccc(OC)cc4)sc3n2)c1 | 0.94 µM | 0.89 µM | 2.3 µM | 1.2 µM
